# Test results reported in paper PMC10564794, “Safety and tolerability of oral vorolanib for neovascular (wet) age-related macular degeneration: a phase I, open-label study” (Eye, 2023).
# Read-outs that look alike come from different tables or passages of the source.
# Assays:
# [1] = Pharmacokinetics of vorolanib after single and multiple dosing; format: in vivo, human; conditions: for half-life / Cmax / Tmax / AUC / Vd/F / AUC(0-t): human, plasma, oral; for Tmax: median (range); for Vd/F: read-out: Vz/F (apparent volume of distribution); for AUC(0-t): read-out: AUC0-24h
# Description: In the initial PK evaluation after a single dose, blood samples from participants in the 25 mg group were collected predose (−0.5 h) and at 0.5, 1, 2, 3, 4, 6, 8, 12, 16, 24, 36, and 48 h post-dose; blood samples from participants in the 50 mg and 75 mg groups were collected predose (−0.5 h) and at 0.5, 1, 2, 3, 4, 6, 8, 12, 16, 24, 36, 48, and 72 h post-dose. During continuous dosing, blood in the 50 mg group was obtained on Day 7, Day 14 and Day 21 predose and on Day 30 predose and at 0.5, 1, 2, 3, 4, 6, 8, 12, 16 and 24 h post-dose, while blood in the 75 mg group was obtained on Day 7, Day 14 and Day 21 predose and on Day 30 predose and at 0.5, 1, 2, 3, 4, 6, 8, 12, 16, 24, 36, 48, and 72 h post-dose. The multiple dose data for 25 mg were not collected.
# All participants moved from single dosing to multiple daily dosing.
# [2] = system: participants with advanced cancer; parameters: method as in PMID 33707933; conditions: US participants with advanced cancer, once daily; cited from earlier work
# [3] = continuous dose administration, 50 to 75 mg
# [4] = multiple doses 50 mg daily, n = 8, arithmetic mean (%CV)
# [5] = multiple doses 75 mg daily, n = 8, arithmetic mean (%CV)
structure (smiles),measurement,setting,value
"Cc1[nH]c(/C=C2\C(=O)Nc3ccc(F)cc32)c(C)c1C(=O)N[C@H]1CCN(C(=O)N(C)C)C1 [vorolanib, Vorolanib]",Accumulation,[1]; [3],no obvious accumulation
same,Time to steady-state concentration,[1]; [3],4 days
same,Dose dependence of maximum blood concentration and area under the curve,[1]; doses of 25–50 mg after a single dose,increased linearly in a dose-dependent manner
same,half-life,"[1]; 25 mg, single dose 25 mg, n = 8, arithmetic mean (%CV)",5.9 h
same,Cmax,"[1]; 25 mg, single dose 25 mg, n = 8, arithmetic mean (%CV), read-out: Cmax",140 ng/mL
same,Tmax,"[1]; 25 mg, single dose 25 mg, n = 8, read-out: Tmax",3.03 h
same,half-life,"[1]; 50 mg, multiple doses 50 mg daily, n = 8, arithmetic mean (%CV)",4.9 h
same,Cmax,"[1]; 50 mg, multiple doses 50 mg daily, n = 8, arithmetic mean (%CV), read-out: Cmax,ss",246 ng/mL
same,Tmax,"[1]; 50 mg, multiple doses 50 mg daily, n = 8, read-out: Tmax,ss",5.03 h
same,half-life,"[1]; 50 mg, single dose 50 mg, n = 8, arithmetic mean (%CV)",10.7 h
same,Cmax,"[1]; 50 mg, single dose 50 mg, n = 8, arithmetic mean (%CV), read-out: Cmax",201 ng/mL
same,Tmax,"[1]; 50 mg, single dose 50 mg, n = 8, read-out: Tmax",6 h
same,half-life,"[1]; 75 mg, multiple doses 75 mg daily, n = 8, arithmetic mean (%CV)",7.3 h
same,Cmax,"[1]; 75 mg, multiple doses 75 mg daily, n = 8, arithmetic mean (%CV), read-out: Cmax,ss",269 ng/mL
same,Tmax,"[1]; 75 mg, multiple doses 75 mg daily, n = 8, read-out: Tmax,ss",4 h
same,half-life,"[1]; 75 mg, single dose 75 mg, n = 8, arithmetic mean (%CV)",10.3 h
same,Cmax,"[1]; 75 mg, single dose 75 mg, n = 8, arithmetic mean (%CV), read-out: Cmax",237 ng/mL
same,Tmax,"[1]; 75 mg, single dose 75 mg, n = 8, read-out: Tmax",4 h
same,half-life,"[1]; single dosing, 25–75 mg cohorts, approximately",5.9 to 10.7 h
same,AUC,[1]; [4],2180 ng·h/mL
same,Vd/F,[1]; [4],180 L
same,AUC,[1]; [5],1950 ng·h/mL
same,Vd/F,[1]; [5],436 L
same,AUC(0-t),"[1]; single dose 25 mg, n = 8, arithmetic mean (%CV)",1010 ng·h/mL
same,AUC(0-t),"[1]; single dose 50 mg, n = 8, arithmetic mean (%CV)",1730 ng·h/mL
same,AUC(0-t),"[1]; single dose 75 mg, n = 8, arithmetic mean (%CV)",1700 ng·h/mL
same,CLss/F (apparent oral clearance),[1]; [4],26.2 (40.1) L/h
same,Rac (accumulation ratio based on AUCss),[1]; [4],1.30 (31.3)
same,CLss/F (apparent oral clearance),[1]; [5],42.4 (32.7) L/h
same,Rac (accumulation ratio based on AUCss),[1]; [5],1.20 (36.2)
same,AUC in Chinese people versus Americans,"[1]; preliminary PK results, unpublished data",relatively higher AUC in Chinese people than in Americans
same,Recommended dose of vorolanib monotherapy,[2],400 mg
